Assays:
Assay in all cases: radio-TLC assay of yeast membrane fraction (alcohols + aldehydes)
Type in all cases: biochemical
AdFAR1 = target: T1, AdFAR1 (Anser anser, UniProt G9IBF1); settings: pH 6.5, 37 C
T1 construct: gene FAR1; full-length cDNA from uropygial gland in pYES-DEST52 (primer keeps stop codon); S. cerevisiae BY4741 dga1 lro1 membranes
T1 sequence (G9IBF1 1-515): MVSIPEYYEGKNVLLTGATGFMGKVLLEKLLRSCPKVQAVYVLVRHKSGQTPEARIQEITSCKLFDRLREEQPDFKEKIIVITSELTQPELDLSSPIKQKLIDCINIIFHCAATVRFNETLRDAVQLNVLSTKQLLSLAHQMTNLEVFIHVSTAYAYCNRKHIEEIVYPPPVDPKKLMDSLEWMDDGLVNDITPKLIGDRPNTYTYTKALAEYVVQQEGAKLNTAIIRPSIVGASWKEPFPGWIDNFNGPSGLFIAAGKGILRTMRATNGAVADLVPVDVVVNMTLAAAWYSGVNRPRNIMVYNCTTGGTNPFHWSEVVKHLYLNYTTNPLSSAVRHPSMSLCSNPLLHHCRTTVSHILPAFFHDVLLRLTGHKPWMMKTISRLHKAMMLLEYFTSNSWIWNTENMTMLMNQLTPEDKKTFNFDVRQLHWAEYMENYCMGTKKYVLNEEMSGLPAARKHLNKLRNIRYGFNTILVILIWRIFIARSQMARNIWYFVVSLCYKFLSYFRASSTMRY

GgFAR1 = target: T2, GgFAR1 (Gallus gallus, UniProt Q5ZM72); settings: labelled acyl-CoA as co-substrate; pH 6.5, 37 C
T2 construct: gene FAR1; uropygial gland cDNA in pYES-DEST52, S. cerevisiae BY4741 dga1 lro1 membranes
T2 sequence (Q5ZM72 1-515): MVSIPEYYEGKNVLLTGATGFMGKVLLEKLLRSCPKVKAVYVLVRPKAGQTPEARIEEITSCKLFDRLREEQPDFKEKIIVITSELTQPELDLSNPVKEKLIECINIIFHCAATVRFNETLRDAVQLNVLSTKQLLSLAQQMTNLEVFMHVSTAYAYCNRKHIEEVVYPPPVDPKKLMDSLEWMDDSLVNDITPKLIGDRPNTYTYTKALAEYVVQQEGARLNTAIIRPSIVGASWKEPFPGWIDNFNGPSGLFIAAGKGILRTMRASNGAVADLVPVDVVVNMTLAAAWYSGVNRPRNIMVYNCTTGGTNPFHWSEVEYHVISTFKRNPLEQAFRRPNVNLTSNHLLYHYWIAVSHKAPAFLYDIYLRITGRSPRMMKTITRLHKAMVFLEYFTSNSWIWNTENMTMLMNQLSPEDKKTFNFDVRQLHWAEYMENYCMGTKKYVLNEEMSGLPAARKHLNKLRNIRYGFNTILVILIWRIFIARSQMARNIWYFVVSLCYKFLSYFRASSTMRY

TaFAR2 = target: T3, TaFAR2 (Tyto alba, UniProt G9IBF3); settings: labelled 18:0-CoA as co-substrate; pH 5.5, 37 C
T3 construct: gene FAR2; full-length cDNA from uropygial gland in pYES-DEST52 (primer keeps stop codon); expressed in Saccharomyces cerevisiae BY4741 dga1 lro1; total membrane fraction
T3 sequence (G9IBF3 1-515): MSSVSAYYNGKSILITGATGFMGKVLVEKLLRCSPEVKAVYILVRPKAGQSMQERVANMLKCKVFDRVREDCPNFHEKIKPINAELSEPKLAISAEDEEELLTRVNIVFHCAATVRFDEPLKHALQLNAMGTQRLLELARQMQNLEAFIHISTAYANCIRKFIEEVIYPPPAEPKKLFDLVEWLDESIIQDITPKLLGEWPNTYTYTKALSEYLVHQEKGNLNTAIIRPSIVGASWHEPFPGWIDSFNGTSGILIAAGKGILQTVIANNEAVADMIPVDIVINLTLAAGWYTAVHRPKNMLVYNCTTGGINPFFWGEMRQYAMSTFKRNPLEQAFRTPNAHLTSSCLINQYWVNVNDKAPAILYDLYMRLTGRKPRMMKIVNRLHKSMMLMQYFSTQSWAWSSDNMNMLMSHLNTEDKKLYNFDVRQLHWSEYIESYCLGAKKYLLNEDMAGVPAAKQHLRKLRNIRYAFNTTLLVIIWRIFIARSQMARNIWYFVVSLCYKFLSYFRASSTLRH

GgFAR2 = target: T4, GgFAR2 (Gallus gallus, UniProt A0A3Q2TWV7, V159M/K457R); settings: labelled acyl-CoA as co-substrate; pH 5.5, 37 C
T4 construct: gene FAR2; uropygial gland cDNA in pYES-DEST52, S. cerevisiae BY4741 dga1 lro1 membranes
T4 sequence (A0A3Q2TWV7 1-515 V159M/K457R): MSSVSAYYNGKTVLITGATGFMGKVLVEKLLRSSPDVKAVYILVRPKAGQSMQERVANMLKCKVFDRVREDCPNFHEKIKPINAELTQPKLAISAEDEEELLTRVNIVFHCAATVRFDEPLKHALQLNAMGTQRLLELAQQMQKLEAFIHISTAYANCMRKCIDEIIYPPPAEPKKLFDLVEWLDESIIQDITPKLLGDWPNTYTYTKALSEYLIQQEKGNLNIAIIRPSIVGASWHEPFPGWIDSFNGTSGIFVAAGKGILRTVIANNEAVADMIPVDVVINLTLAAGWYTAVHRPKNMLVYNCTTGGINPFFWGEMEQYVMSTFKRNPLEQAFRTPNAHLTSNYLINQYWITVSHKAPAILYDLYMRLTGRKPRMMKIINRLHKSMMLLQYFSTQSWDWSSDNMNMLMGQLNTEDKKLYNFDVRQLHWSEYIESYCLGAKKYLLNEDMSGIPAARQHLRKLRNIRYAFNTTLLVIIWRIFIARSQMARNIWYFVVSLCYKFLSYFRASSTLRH

TaFAR1 = target: T5, TaFAR1 (Tyto alba, UniProt G9IBF2); settings: labelled 16:0-CoA as co-substrate, NADPH varied; pH 6.5, 37 C
T5 construct: gene FAR1; full-length cDNA from uropygial gland in pYES-DEST52 (primer keeps stop codon); expressed in Saccharomyces cerevisiae BY4741 dga1 lro1; total membrane fraction
T5 sequence (G9IBF2 1-515): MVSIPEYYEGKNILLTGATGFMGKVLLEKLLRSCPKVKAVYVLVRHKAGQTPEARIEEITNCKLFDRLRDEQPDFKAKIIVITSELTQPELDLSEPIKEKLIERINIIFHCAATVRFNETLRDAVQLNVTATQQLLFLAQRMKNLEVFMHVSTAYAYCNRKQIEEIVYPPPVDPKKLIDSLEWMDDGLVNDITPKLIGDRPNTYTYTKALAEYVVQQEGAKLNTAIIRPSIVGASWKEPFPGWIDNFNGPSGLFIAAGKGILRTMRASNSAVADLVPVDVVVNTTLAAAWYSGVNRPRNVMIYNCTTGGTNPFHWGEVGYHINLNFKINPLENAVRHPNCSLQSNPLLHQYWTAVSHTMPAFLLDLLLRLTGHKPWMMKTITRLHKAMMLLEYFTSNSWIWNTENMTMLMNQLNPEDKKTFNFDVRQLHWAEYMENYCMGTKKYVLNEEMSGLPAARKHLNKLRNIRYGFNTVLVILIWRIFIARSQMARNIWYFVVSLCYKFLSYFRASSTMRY

With `CCCCCCCCCCCCCCCC(=O)SCCNC(=O)CCNC(=O)[C@H](O)C(C)(C)COP(=O)(O)OP(=O)(O)OC[C@H]1O[C@@H](n2cnc3c(N)ncnc32)[C@H](O)[C@@H]1OP(=O)(O)O` [16:0-CoA] the “radio-TLC assay of yeast membrane fraction (alcohols + aldehydes)” value (AdFAR1; 20 uM acyl-CoA, 5 mM NADPH, 1 mM MgCl2, 16 uM BSA, labelled compound) was “only AdFAR1 of goose was almost equally active with all substrates”.
In the case of `NC(=O)C1=CN([C@@H]2O[C@H](COP(=O)(O)OP(=O)(O)OC[C@H]3O[C@@H](n4cnc5c(N)ncnc54)[C@H](OP(=O)(O)O)[C@@H]3O)[C@@H](O)[C@H]2O)C=CC1` [NADPH], the “radio-TLC assay of yeast membrane fraction (alcohols + aldehydes)” value (GgFAR1) is reported as “All FAR enzymes required NADPH as electron donor”, the “radio-TLC assay of yeast membrane fraction (alcohols + aldehydes)” value (AdFAR1; labelled acyl-CoA as co-substrate) is reported as “All FAR enzymes required NADPH as electron donor” and the “radio-TLC assay of yeast membrane fraction (alcohols + aldehydes)” value (TaFAR2) is reported as “All FAR enzymes required NADPH as electron donor”. For the same compound, the “radio-TLC assay of yeast membrane fraction (alcohols + aldehydes)” value (GgFAR2) was “All FAR enzymes required NADPH as electron donor” and the “radio-TLC assay of yeast membrane fraction (alcohols + aldehydes)” value (TaFAR1) was “All FAR enzymes required NADPH as electron donor”.

From publication PMC3265415, “Fatty acyl-CoA reductases of birds” (BMC Biochemistry, 2011)
